Assay results: patent publication US20240327787A1, “CULTURE MEDIUM, COATING MATRIX AND METHOD FOR EXPANDING MIDBRAIN DOPAMINERGIC PROGENITOR CELLS” (NUWACELL BIOTECHNOLOGIES CO., LTD., priority 2022, published 2024)
Where a name gives a salt, the structure may show the parent alone.

System: imDAPs
Experiment: Flow cytometry analysis of FOXA2 expression in expanded imDAPs
Format: cell-based, human
Settings: VTN-coated
Procedure: 1. Individualize and collect cells by either Accutase or TrypLE treatment.
2. Wash cells with 1 ml PBS and pellet cells at 250×g for 15 sec.
3. Remove supernatant, add ˜200 μl of 4% PFA, mix and fix for 10 min at RT.
4. Pellet cells at 350×g for 5 min.
5. Wash cells by 1 ml of FACS buffer and pellet cells at 350×g for 5 min.
6. Remove supernatant, add 200 μl/tube of FACS buffer/0.1% TritonX, mix for 10 min at RT.
7. Wash cells by 1 ml of FACS buffer and pellet cells at 350×g for 5 min.
8. Remove supernatant, add 200 μl/tube of primary antibody diluted in FACS buffer, mix gently, and incubate for 30 min at RT.
9. Wash cells by 1 ml of FACS buffer and pellet cells at 350×g for 5 min.
10. Remove supernatant, and add 200 μl of secondary antibody diluted in FACS buffer, mix gently, and incubate for 30 min at RT.
11. Wash cells by 1 ml of FACS buffer and pellet cells at 300×g for 5 min.
12. Remove supernatant, add 200 μl of FACS buffer, and run samples on the flow cytometry.
imDAPs were produced according to the method described in CN201910169525.0. The imDAPs (P0) were seeded on VTN-coated plates (1 μg/cm^2) at a low density of 1×10^4 cells/cm^2, and cultured in the expansion medium (50% DMEM/F12, 50% Neurobasal™ medium, 1% (v/v) Glutamax, 2% (v/v) B27 (50×), 0.2 μM LDN193189, 3 μM CHIR99021, 100 ng/mL FGF8b) with either 5 μM Blebbistatin or 10 μM Y27632. Medium was replaced every 3rd day. At Day 6, cells were collected for FACS analysis.
imDAPs were produced according to the method described in CN201910169525.0. The imDAPs (P0) were seeded on DLL4-coated (1 μg/cm^2), VTN-coated (1 μg/cm^2) and DLL4/VTN-coated (1 μg/cm^2 for each) plates at a low density of 1×10^4 cells/cm^2 respectively, and cultured in the expansion medium in the absence or presence of 5 μM SB431542. Medium was replaced every 3rd day until reaching 100% confluence (6 days) for cell collection. The typical cell morphology on day 4 was recorded (FIG. 4A). The cell number of each group was counted by Vi-cell cytometer (FIG. 4B). The cells of each group were stained with Foxa2-PE antibody (BD, #561589), the percentage of Foxa2+ imDAPs were analyzed by flow cytometry (FIG. 4C). The expansion medium used in this example contained the following components: 50% DMEM/F12, 50% Neurobasal™ medium, 1% (v/v) Glutamax, 1% (v/v) B27, 50 μg/ml ascorbic acid, 0.2 μM LDN193189, 100 ng/ml FGF8b, 3 μM CHIR99021 and 10 µM Y27632.
imDAPs were produced according to the method described in CN201910169525.0. The imDAPs (P0) were seeded on DLL4/VTN-coated (1 μg/cm^2 for each) plates at a low density of 1×10^4 cells/cm^2, and cultured in the expansion medium (EM1, EM2, EM3, EM4). Medium was replaced every 3rd day until reaching 100% confluence (6 days) for cell collection. EM1 used in Example 9 contained the following components: 50% DMEM/F12, 50% Neurobasal™ medium, 1% (v/v) Glutamax, 1% (v/v) B27 (50×), 50 μg/ml ascorbic acid, 3 μM CHIR99021, 5 μM SB431542 and 10 μM Y27632. EM2 used in Example 9 contained the following components: 50% DMEM/F12, 50% Neurobasal™ medium, 1% (v/v) Glutamax, 1% (v/v) B27 (50×), 50 μg/ml ascorbic acid, 0.2 μM LDN193189, 3 μM CHIR99021, 5 μM SB431542 and 10 μM Y27632. EM3 used in Example 9 contained the following components: 50% DMEM/F12, 50% Neurobasal™ medium, 1% (v/v) Glutamax, 1% (v/v) B27 (50×), 50 μg/mL ascorbic acid, 0.2 μM LDN193189, 100 ng/ml FGF8b, 3 μM CHIR99021, 5 μM SB431542 and 10 μM Y27632. […]

`C[C@@H](N)[C@H]1CC[C@H](C(=O)Nc2ccncc2)CC1` [Y27632, (R)-(+)-trans-4-(1-aminoethyl)-N-(4-pyridyl) cyclohexanecarboxamide dihydrochloride] was tested. Which “percentage of Foxa2-expressing cells (FIG. 2)” value (10 μM Y27632 vs 5 μM Blebbistatin in expansion medium, 1×10^4 cells/cm^2, Day 6) did it give?
Its value is “capable of improving the percentage of Foxa2-expressing cells than Blebbistatin”.

What about the “percentage of Foxa2-expressing cells during passages” value (expansion medium with 10 μM Y27632) of the same compound?
Its value is “still decreased during passages”.
